What was measured:
Human VPS34 = Human VPS34 (Homo sapiens (Human), UniProt Q8NEB9); assay: Human VPS34 enzyme assay (Adapta TR-FRET); type: biochemical; settings: compound concentration 1.11 μM; for inhibition at 1.11 µM: read-out: Percent Inhibition
PC9 cell line = assay: Cellular assay for anti-proliferative activity in combination with a second therapeutic agent (Cell Titer Glo), PC9; type: cell-based, human; settings: in combination with AZD9291, call from Combination Index
Method: Cells were plated in […] of media in 384 well plates at 1,000 cells per well (A431, PC9, and NCI-H1650 cell lines), 1,500 cells per well (NCI-H1975) or 2,000 cells per well ([…]). The plates were incubated for 24 hrs at 37° C., 6% CO2. The test compounds (see Table 38 below) were diluted serially, and 62.5 nL of each compound solution (or DMSO, if it is a single agent experiment) is added so the total added to the cells is 125 nL. Cell plates were incubated for 72 hrs at 37° C., 6% CO2. Cell Titer Glo reagent (Promega) was added. The plates were then incubated for 10 minutes at room temperature before luminescence was read on a plate reader such as the Pherastar Plus, Pherastar FS, or LEADSeeker imaging system.
Bliss antagonism was defined similarly.
Bliss dependence was defined as the percent cell survival at a certain dose combination divided by the percent cell survival predicted by Bliss independence. More specifically, the Bliss dependence is vAB/(vA*vB), where vAB is the viability with drug A and drug B added, while vA and vB are the viabilities with each drug alone. […]
Another way to evaluate additivity is through consideration of Loewe additivity. […] For Bliss independence, the boundary between additivity and synergy must be measured. […]
Synergy can also be measured by nonlinear blending synergy. […]

Chain of Human VPS34 (Q8NEB9 whole entry): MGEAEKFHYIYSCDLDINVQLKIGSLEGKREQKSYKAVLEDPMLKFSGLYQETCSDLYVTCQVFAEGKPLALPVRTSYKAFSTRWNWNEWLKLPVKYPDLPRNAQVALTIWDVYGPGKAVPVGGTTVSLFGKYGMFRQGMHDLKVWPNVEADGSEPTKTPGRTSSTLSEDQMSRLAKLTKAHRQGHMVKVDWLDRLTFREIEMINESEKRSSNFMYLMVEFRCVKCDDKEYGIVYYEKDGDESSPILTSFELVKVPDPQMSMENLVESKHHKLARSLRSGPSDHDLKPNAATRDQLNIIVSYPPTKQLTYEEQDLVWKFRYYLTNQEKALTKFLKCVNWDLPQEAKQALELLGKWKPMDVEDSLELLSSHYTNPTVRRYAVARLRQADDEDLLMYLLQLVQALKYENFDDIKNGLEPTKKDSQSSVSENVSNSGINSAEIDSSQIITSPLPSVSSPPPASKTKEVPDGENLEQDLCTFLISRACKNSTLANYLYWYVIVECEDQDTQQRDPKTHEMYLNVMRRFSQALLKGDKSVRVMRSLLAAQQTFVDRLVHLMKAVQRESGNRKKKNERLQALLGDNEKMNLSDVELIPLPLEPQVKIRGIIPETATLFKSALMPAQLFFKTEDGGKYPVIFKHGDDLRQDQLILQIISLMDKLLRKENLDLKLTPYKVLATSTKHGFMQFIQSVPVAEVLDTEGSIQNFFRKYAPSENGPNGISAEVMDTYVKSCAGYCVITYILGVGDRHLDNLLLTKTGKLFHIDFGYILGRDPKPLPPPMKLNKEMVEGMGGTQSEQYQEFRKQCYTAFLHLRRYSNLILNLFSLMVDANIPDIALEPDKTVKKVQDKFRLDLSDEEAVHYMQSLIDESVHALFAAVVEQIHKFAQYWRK

Row | Structure (SMILES) | inhibition at 1.11 µM (Human VPS34) [%] | Meaning (PC9 cell line) | Percent Inhibition (Human VPS34) [%]
1 | Cc1c(-c2ccnc(NC(=O)C3CC3)c2)cnc(Cl)c1NS(=O)(=O)c1ccc(F)cc1F [Compound I-308, N-(6-chloro-5-{[(2,4-difluorophenyl)sulfonyl]amino}-4-methyl-3,4′-bipyridin-2′-yl)cyclopropane carboxamide] | > 99 | SubAdditivity | –
2 | CC(=O)Nc1cc(-c2cnc(N)c(N3CCCNS3(=O)=O)c2)ccn1 [Compound I-490, N-[6-amino-5-(1,1-dioxido-1,2,6-thiadiazinan-2-yl)-3,4′-bipyridin-2′-yl]acetamide] | > 99 | – | –
3 | CC(=O)Nc1cc(-c2cnc(N(C)C)c(S(=O)(=O)Nc3ccc(F)cc3F)c2)ccn1 [Compound I-491, N-{5-[(2,4-difluorophenyl)sulfamoyl]-6-(dimethylamino)-3,4′-bipyridin-2′-yl}acetamide] | 98 | – | –
4 | CC(=O)Nc1cc(-c2cnc(C)c(OCC3CC3)c2)ccn1 [Compound I-492, N-[5-(cyclopropylmethoxy)-6-methyl-3,4′-bipyridin-2′-yl]acetamide] | 86 | – | –
5 | CC(=O)Nc1cc(-c2cnc(Cl)c(NS(=O)(=O)c3cn(C)nc3C(F)(F)F)c2C)ccn1 [Compound I-493, N-[6-chloro-4-methyl-5-({[1-methyl-3-(trifluoromethyl)-1H-pyrazol-4-yl]sulfonyl}amino)-3,4′-bipyridin-2′-yl]acetamide] | – | – | 99
6 | CC(=O)Nc1cc(-c2cnc(C)c(NS(=O)(=O)N(C)c3ccccc3)c2)ccn1 [Compound I-494, N-(6-methyl-5-{[methyl(phenyl)sulfamoyl]amino}-3,4′-bipyridin-2′-yl)acetamide] | 91 | – | –
7 | Cc1nccc(Nc2cc(-c3cnc(C)c(C(=O)N4CC(C)(C)C4)c3)ccn2)n1 [Compound I-495, (3,3-dimethylazetidin-1-yl){6-methyl-2′-[(2-methylpyrimidin-4-yl)amino]-3,4′-bipyridin-5-yl}methanone] | 83 | – | –

From patent US9802960B2 (MILLENNIUM PHARMACEUTICALS, INC., priority 2014, dated 2017)
